Source: patent US5187157A, “Peptide boronic acid inhibitors of trypsin-like proteases” (Du Pont Merck Pharmaceutical Company, priority 1988, dated 1993)

Legend:
chymotrypsin = chymotrypsin (Bos taurus, UniProt P00766); details: literature; cited from earlier work
normal rabbit plasma = experiment: Thrombin times (TT), blood coagulation in vitro; format: biochemical; details: thrombin 4 μ/ml
Method: A mixture of 0.2 ml of normal rabbit plasma and 0.05 ml of buffer containing the inhibitor at 6 times the desired final concentration was warmed to 37° C. Clotting was initiated by addition of thrombin (0.05 ml at 6 times the final concentration). The thrombin used was purchased from Sigma Chemical Company (No. T-6634, activity 1190 NIH units per mg protein) and prepared in buffer. The buffer employed for both the inhibitor and the thrombin was 0.1 M Tris buffer (12.10 g/L), containing 0.154 M NaCl (8.84 g/L) and 2.5 mg/ml bovine serum albumin, pH 7.4. The clotting times, measured in seconds, were determined using a fibrometer. The effects of the inhibitor on blood clotting times compared with the blood clotting times of controls run in the absence of inhibitors, are shown in Table 6. Values represent the average of at least three determinations.

Sprague Dawley CD Rats = experiment: Inhibition of Blood Coagulation Following In Vivo Oral Dosing (thrombin times of plasma)
Method: Male rats (Sprague Dawley CD Rats, 130-140 g, supplied by Charles River Labs, Inc., Wilmington, MA) were anesthetized with sodium pentobarbital (50 mg/kg, i.p.). A midline incision was made on the ventral surface of the neck, and a polyethylene catheter was inserted in one of the carotid arteries and exteriorized at the back of the neck. After recovery from anesthesia, control blood samples were taken from the carotid artery catheter, anticoagulated with sodium citrate, and centrifuged (2000×g, 10 minutes). Plasma was transferred to plastic tubes and kept on ice until it was assayed. Thrombin times were measured using a fibrometer, as described in Examples 125-127.
The vehicle employed was 5% dimethylsulfoxide in saline. Blood samples were taken at various times after oral dosing and assayed as described above. When clotting time exceeded 300 seconds, it is reported below as >300.

rats = experiment: Survival after thrombin infusion following oral dosing; format: in vivo; details: 5 mg/kg orally in water; 500 units/kg thrombin infused thirty to sixty minutes later; water controls: all fourteen died
Description: Thirty to sixty minutes later, all rats received an infusion of 500 units/kg thrombin over a period of one minute. All fourteen rats given only water died within ten minutes of the thrombin infusion. In contrast only 8 out of 17 rats treated with the inhibitor-containing water died within ten minutes, and the remainder survived one hour, at which time they were euthanized.

Male Lewis rats = experiment: In Vivo Inhibition of Blood Coagulation Following Oral, Colonic and Rectal Administration; details: mean for 3 rats
Method: Male Lewis rats weighing between 300-350 g were anesthetized with sodium pentobarbitol (50 mg/kg, i.p.) and the jugular vein was cannulated using a silastic tubing attached to a polyethylene 50 tubing. The tubing was exteriorized at the back of the neck and attached to a syringe through a stop cock. […] The blood samples were then transferred into vacutainers containing citrate buffer. Also, after each collection the cannula was flushed with saline. The blood samples were then centrifuged immediately (2500 rpm for 15 min) and 0.2 ml of the plasma samples were used for clotting time measurements. The clotting time measurements were carried out using a fibrometer as follows. First, plasma (0.2 ml) was placed in a fibro cup, and pH 7.4 Tris buffer (50 microliters) was added. The plasma buffer solution was incubated at 37° C. for 1 min, 50 microters of a 24 μ/ml thrombin solution in Tris buffer was then added, and clotting time in seconds was measured. When clotting time exceeded 300 seconds, it is reported below as >300.
The jugular vein-cannulated rats were allowed to recover from anesthesia before they were dosed orally. The protease inhibitor Ac-(D)Phe-Pro-boroArg--OH aqueous solution, consisting of 3 mg of inhibitor per kg weight of rat (approximately 1 mg/rat) in a volume of 0.75 ml of water per kg of rat, was administered by gavage.
A 3 cm incision was made in the abdomen of the jugular vein-cannulated rats while they were still under anesthesia. The colon was located and was tied off at both the beginning and the end. The protease inhibitor Ac-(D)Phe-Pro-boroArg--OH aqueous solution, consisting of 3 mg of inhibitor per kg weight of rat (approximately 1 mg/rat) in a volume of 1 ml of water per kg weight of rat, was injected at the beginning into the colon cavity. The incision was closed using wound clips.
The procedure for rectal administration in the jugular vein-cannulated rats was as described by Kamiya et al., J. Pharm. Sci., 71: 621 (1982). In brief, a device was made consisting of a 0.89 cm and a 0.71 cm silicon rubber septa connected by a 2 cm length of wire. This device was inserted into the rectum of the rat, the large septum first, and glued to the annus using suitable glue. Dosing was accomplished by injection through the exposed septum. The rectal dose was 3 mg of the protease inhibitor Ac-(D)Phe-Pro-boroArg--OH per kg weight of rat (approximately 1 mg/rat) in a volume of 0.6 ml of water per kg of rat.

For `CC(=O)N[C@@H](Cc1ccccc1)B(O)O` [(R)-1-acetamido-2-phenylethane boronic acid], the Ki (chymotrypsin) is listed as 4 µM.
With `CC(=O)N[C@H](Cc1ccccc1)C(=O)N1CCC[C@H]1C(=O)N[C@@H](CCCN=C(N)N)B(O)O.Cl` [Ac-(D)Phe-Pro-boroArg-OH, Ac-(D)Phe-Pro-boroArg-OH.HCl] the “Thrombin Times” value (normal rabbit plasma; inhibitor 50 nM, mean ± standard deviation) was 32.7 ± 0.8 s, the “Thrombin Times” value (normal rabbit plasma; inhibitor 100 nM, mean ± standard deviation) was 62.4 ± 7.2 s and the “Thrombin Times” value (normal rabbit plasma; inhibitor 150 nM, terminated at 300 seconds) was greater than 300 s. The “clotting times (thrombin times)” value (Sprague Dawley CD Rats; oral gavage 1 mg, 1 hr) was greater than 300 s, the “clotting times (thrombin times)” value (Sprague Dawley CD Rats; oral gavage 1 mg, 2 hr) was greater than 300 s and the “clotting times (thrombin times)” value (Sprague Dawley CD Rats; oral gavage 1 mg, 3 hr) was greater than 300 s. The “clotting times (thrombin times)” value (Sprague Dawley CD Rats; oral gavage 1 mg, 4 hr, mean ± standard deviation) was 47 ± 4 s, the “clotting times (thrombin times)” value (Sprague Dawley CD Rats; oral gavage 1 mg, 6 hr, mean ± standard deviation) was 46 ± 3 s and the “clotting times (thrombin times)” value (Sprague Dawley CD Rats; oral gavage 1 mg, .5 hr) was greater than 300 s. For the same compound, the “clotting times (thrombin times)” value (Sprague Dawley CD Rats; oral gavage 2 mg, 4 hr, mean ± standard deviation) was 54 ± 29 s, the “clotting times (thrombin times)” value (Sprague Dawley CD Rats; oral gavage 2 mg, 6 hr, mean ± standard deviation) was 44 ± 4 s and the “clotting times (thrombin times)” value (Sprague Dawley CD Rats; oral gavage 2 mg, .5 hr) was greater than 300 s. The “clotting times (thrombin times)” value (Sprague Dawley CD Rats; oral gavage 10 mg, 1 hr) was greater than 300 s, the “clotting times (thrombin times)” value (Sprague Dawley CD Rats; oral gavage 10 mg, 2 hr) was greater than 300 s and the “clotting times (thrombin times)” value (Sprague Dawley CD Rats; oral gavage 10 mg, 3 hr) was greater than 300 s. The “clotting times (thrombin times)” value (Sprague Dawley CD Rats; oral gavage 10 mg, .5 hr) was greater than 300 s, the “rats died within ten minutes of the thrombin infusion” value (rats) was 8 out of 17 and the Clotting Time (Male Lewis rats; colonic 3 mg/kg, 0.0 hr) was 59.4 s. It also gave a Clotting Time (Male Lewis rats; colonic 3 mg/kg, 0.5 hr) greater than 300 s, a Clotting Time (Male Lewis rats; colonic 3 mg/kg, 1.0 hr) greater than 300 s and a Clotting Time (Male Lewis rats; colonic 3 mg/kg, 2.0 hr) greater than 300 s. The Clotting Time (Male Lewis rats; colonic 3 mg/kg, 4.0 hr) was greater than 300 s, the Clotting Time (Male Lewis rats; colonic 3 mg/kg, 5.0 hr) was greater than 300 s and the Clotting Time (Male Lewis rats; oral 3 mg/kg, 0.00 hr) was 57.3 s. For the same compound, the Clotting Time (Male Lewis rats; oral 3 mg/kg, 0.25 hr) was greater than 300 s, the Clotting Time (Male Lewis rats; oral 3 mg/kg, 0.50 hr) was greater than 300 s and the Clotting Time (Male Lewis rats; oral 3 mg/kg, 1.00 hr) was greater than 300 s. It also gave a Clotting Time (Male Lewis rats; oral 3 mg/kg, 2.00 hr) greater than 300 s, a Clotting Time (Male Lewis rats; oral 3 mg/kg, 3.00 hr) greater than 300 s and a Clotting Time (Male Lewis rats; oral 3 mg/kg, 4.00 hr) greater than 300 s. For the same compound, the Clotting Time (Male Lewis rats; rectal 3 mg/kg, 0 hr) was 66.4 s, the Clotting Time (Male Lewis rats; rectal 3 mg/kg, 0.25 hr) was greater than 300 s and the Clotting Time (Male Lewis rats; rectal 3 mg/kg, 0.5 hr) was greater than 300 s. The Clotting Time (Male Lewis rats; rectal 3 mg/kg, 1.0 hr) was greater than 300 s, the Clotting Time (Male Lewis rats; rectal 3 mg/kg, 2.0 hr) was greater than 300 s and the Clotting Time (Male Lewis rats; rectal 3 mg/kg, 4.0 hr) was greater than 300 s.
